Source: patent US9446047B2, “Substituted 2,3-dihydro-1H-inden-1-one retinoic acid-related orphan nuclear receptor antagonists for treating multiple sclerosis” (Arrien Pharmaceuticals LLC, priority 2013, dated 2016)
Read-outs that look alike come from different tables or passages of the source.

How the values were obtained:
RORγ-LBD (RORγt) = target: T1, RORγ-LBD (RORγt) (Homo sapiens, UniProt P51449); experiment: TR-FRET RORγt Binding Assay; conditions: 6-His(GST)RORγ-LBD, SRC1_2 peptide
T1 construct: the 6-His-(GST) RORγ-LBD was used which expressed and purified from baculovirus infected Sf-21 insect cells; made in house; host or cells: baculovirus-infected Sf-21 insect cells
T1 sequence (P51449 269-508 limits assumed): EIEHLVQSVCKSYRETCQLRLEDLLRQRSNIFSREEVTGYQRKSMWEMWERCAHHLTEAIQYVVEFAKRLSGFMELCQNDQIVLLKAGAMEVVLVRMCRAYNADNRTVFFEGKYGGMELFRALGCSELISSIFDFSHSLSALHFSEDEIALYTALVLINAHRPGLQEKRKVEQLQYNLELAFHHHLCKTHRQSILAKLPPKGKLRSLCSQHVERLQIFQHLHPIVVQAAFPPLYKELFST
Method: TR-FRET RORγt Binding Assay: RORγ-LBD contains a 6-His and GST tag peptide from SRC1-2 an aminoterminal biotinyl-[…] was employed and the 6-His-(GST) RORγ-LBD was used which expressed and purified from baculovirus infected Sf-21 insect cells from Invitrogen and purified using glutathione sepharose. […] The peptide binding due to dose-curves of compounds was added the 0.1% DMSO. Fluorescence at wavelength 340 nm was read in each well of […] using an Envision fluorescence reader in Time Resolved mode after overnight incubation at 4° C.

RORγt = target: T2, RORγt (Homo sapiens, UniProt P51449); experiment: RORγt-activated IL-17A Prom/LUCPorter HEK 293 cells luciferase reporter assay; format: cell-based; conditions: IL-17A Prom/LUCPorter HEK 293 cells transfected with RORγt, 16 h
T2 construct: host or cells: IL-17A Prom/LUCPorter HEK 293 cell line (IMGENEX, IML-301)
T2 sequence (P51449 1-497 isoform P51449-2): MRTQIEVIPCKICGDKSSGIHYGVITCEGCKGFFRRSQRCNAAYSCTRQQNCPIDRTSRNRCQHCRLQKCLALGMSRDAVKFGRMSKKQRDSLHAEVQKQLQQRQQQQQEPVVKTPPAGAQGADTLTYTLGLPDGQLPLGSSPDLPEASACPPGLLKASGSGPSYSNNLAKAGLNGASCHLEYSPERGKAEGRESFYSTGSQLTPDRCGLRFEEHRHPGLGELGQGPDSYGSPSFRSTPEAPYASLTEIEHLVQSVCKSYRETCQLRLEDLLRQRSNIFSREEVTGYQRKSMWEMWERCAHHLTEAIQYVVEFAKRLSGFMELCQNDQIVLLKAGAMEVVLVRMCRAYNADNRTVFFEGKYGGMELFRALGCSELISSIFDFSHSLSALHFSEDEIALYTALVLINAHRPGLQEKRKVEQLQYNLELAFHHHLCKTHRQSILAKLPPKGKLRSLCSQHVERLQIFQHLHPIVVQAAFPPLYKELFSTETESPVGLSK
Method: Antagonistic (or inverse agonistic) effects of the test compounds on the RORγt-activated IL-17A Prom/LUCPorter™ HEK 293 cells were analyzed and IC50 of each compound was evaluated. […] Luciferase activity was analyzed using the luciferase reporter assay reagent (IMGENEX, LS100). The data were analyzed using Excel and Prism software. Percent activity was defined as 100×(1−(Well−Control A)/(Control B−Control A)), where Control A was the wells containing cells transfected with RORγt and Control B was the wells containing non-transfected cells. Both Controls A and B were treated with vehicle alone.

[1] = tested on: IL-17 release from CD4+ T cells; experiment: Cytokine IL-17 estimation by HTRF, IL-17 release from CD4+ T cells; format: cell-based; conditions: Homo sapiens, read-out: IL-17 Inhibition
Text: The assay was designed to assess the potency of test compounds on IL-17 cytokine release from CD4+ T cells. In order to aid in the identification of potent inhibitors, the IC50's determined for the test compounds IL-17 release from CD4+ T cells through the generation of 10 point Dose Response Curves (DRC). Assay methods used to quantify IL-17 secretion is HTRF (Homogenous Time Resolved Fluorescence). IL-17 secreted is detected by anti-IL-17 MAb labeled with XL665, the second MAb labeled with Cryptate, which binds to specific epitopes of human IL-17. Upon close proximity of both acceptor and donor energy transfer (FRET) occurs. This technique has been further enhanced by using long-lived labels combined with the detection on a time-resolved fluorescence basis, allowing […] of prompt fluorescence interferences.
The assay was performed according to manufacturer's instruction. All the reagents were reconstituted according to instructions provided. The reagents were dispensed into a half area 96-well plate in the following order: […] or sample, IL-17 MAbXL665 and 5 μL IL-17 Cryptate. For the negative control, the standard or sample is replaced by […]. The plate is covered with a plate sealer and incubated at rt for 2 h. Following incubation, the plate sealer is removed and the plate is read using HTRF protocol on Envision Microplate reader. All of the data analysis was carried out using Microsoft Excel (2010) and IC50 was determined using GraphPad Prism 4 software. % Inhibition of the test compounds were determined utilizing the following formula: % Inhibition=100−(100*(Average Test Compound Counts−Average Negative Control Counts)/(Average Positive Control Counts−Average Negative Control Counts)).
We have established robust in vitro cell-based HTRF assay for the activation and stimulation of CD4+ T lymphocytes to T helper 17 (Th17) cell differentiation and IL-17 production.

[2] = IL-17 release from CD4+ T cells, HTRF

Structure (SMILES)	IC50 (RORγ-LBD (RORγt); read-out: RORγt Binding)	IC50 (RORγt; read-out: RORγt Cell Specific)	IC50 [1, 2]	IC50 (RORγ-LBD (RORγt); RORγt Binding)	IC50 (RORγt; RORγt Cell Specific)	IC50 [1]
COc1cc2c(cc1N1CCOCC1)CC(Cc1ccc(Cl)cc1F)C2=O (stereo not drawn) [compound 16, 2-(4-chloro-2-fluorobenzyl)-6-methoxy-5-morpholino-2,3-dihydro-1H-inden-1-one]	> 1 µM	> 1 µM	> 1 µM	–	–	–
COc1cc2c(cc1N1CCN(C)C(C)C1)CC(Cc1ccc(Cl)cc1F)C2=O (stereo not drawn) [compound 20, 2-(4-chloro-2-fluorobenzyl)-5-(3,4-dimethylpiperazin-1-yl)-6-methoxy-2,3-dihydro-1H-inden-1-one]	> 1 µM	> 10 µM	> 1 µM	–	–	–
COc1cc2c(cc1N1CCOCC1)CC(CC1CCN(Cc3ccccc3)CC1)C2=O (stereo not drawn) [compound 23, 2-((1-benzylpiperidin-4-yl)methyl)-6-methoxy-5-morpholino-2,3-dihydro-1H-inden-1-one]	< 0.5 µM	> 1 µM	< 0.5 µM	–	–	–
COc1cc2c(cc1N1CCN(C)C(C)C1)CC(CC1CCN(Cc3ccccc3)CC1)C2=O (stereo not drawn) [compound 25, 2-((1-benzylpiperidin-4-yl)methyl)-5-(3,4-dimethylpiperazin-1-yl)-6-methoxy-2,3-dihydro-1H-inden-1-one]	–	> 10 µM	–	–	–	–
COc1cc2c(cc1N1CCOCC1)CC(Cc1ccc(F)cc1F)C2=O (stereo not drawn) [compound 28, 2-(2,4-difluorobenzyl)-6-methoxy-5-morpholino-2,3-dihydro-1H-inden-1-one]	> 1 µM	> 10 µM	> 1 µM	–	–	–
COc1cc2c(cc1N1CCOCC1)C/C(=C\c1cc(Br)cc(OC(F)(F)F)c1)C2=O [compound 30, (E)-2-(3-bromo-5-(trifluoromethoxy)benzylidene)-6-methoxy-5-morpholino-2,3-dihydro-1H-inden-1-one]	> 10 µM	> 10 µM	> 1 µM	–	–	–
COc1cc2c(cc1N1CCOCC1)CC(Cc1cc(Br)cc(OC(F)(F)F)c1)C2=O (stereo not drawn) [compound 32, 2-(3-bromo-5-(trifluoromethoxy)benzyl)-6-methoxy-5-morpholino-2,3-dihydro-1H-inden-1-one]	< 0.5 µM	< 0.5 µM	> 1 µM	–	–	–
COc1cc2c(cc1N1CCOCC1)CC(Cc1cccc(C(F)(F)F)c1)C2=O (stereo not drawn) [compound 37, 6-methoxy-5-morpholino-2-(3-(trifluoromethyl)benzyl)-2,3-dihydro-1H-inden-1-one]	–	–	< 0.5 µM	< 0.5 µM	< 0.5 µM	–
COc1cc2c(cc1N1CCOCC1)CC(Cc1c(F)cccc1F)C2=O (stereo not drawn) [compound 42, 2-(2,6-difluorobenzyl)-6-methoxy-5-morpholino-2,3-dihydro-1H-inden-1-one]	> 1 µM	–	> 1 µM	–	–	–
COc1cc2c(cc1N1CCOCC1)CC(Cc1c(F)ccc(NC3CCN(C)CC3)c1F)C2=O (stereo not drawn) [compound 44, 2-(2,6-difluoro-3-((1-methylpiperidin-4-yl)amino)benzyl)-6-methoxy-5-morpholino-2,3-dihydro-1H-inden-1-one]	–	–	> 10 µM	–	–	–
COc1cc2c(cc1N1CCOCC1)CC(Cc1sc(N3CCOCC3)nc1Cl)C2=O (stereo not drawn) [compound 47, 2-((4-chloro-2-morpholinothiazol-5-yl)methyl)-6-methoxy-5-morpholino-2,3-dihydro-1H-inden-1-one]	> 1 µM	> 1 µM	> 1 µM	–	–	–
COc1cc2c(cc1N1CCOCC1)CC(Cc1cc(Cl)cc(C(F)(F)F)c1)C2=O (stereo not drawn) [compound 50, 2-(3-chloro-5-(trifluoromethyl)benzyl)-6-methoxy-5-morpholino-2,3-dihydro-1H-inden-1-one]	< 0.5 µM	> 1 µM	> 1 µM	–	–	–
COc1cc2c(cc1N1CCOCC1)CC(Cc1cc(Cl)ccc1C(F)(F)F)C2=O (stereo not drawn) [compound 53, 2-(5-chloro-2-(trifluoromethyl)benzyl)-6-methoxy-5-morpholino-2,3-dihydro-1H-inden-1-one]	> 1 µM	> 1 µM	> 1 µM	–	–	–
COc1cc2c(cc1N1CCOCC1)CC(Cc1ccc(Cl)cc1C(F)(F)F)C2=O (stereo not drawn) [compound 56, 2-(4-chloro-2-(trifluoromethyl)benzyl)-6-methoxy-5-morpholino-2,3-dihydro-1H-inden-1-one]	> 1 µM	> 1 µM	> 1 µM	–	–	–
COc1cc2c(cc1N1CCOCC1)CC(Cc1c(Cl)cccc1C(F)(F)F)C2=O (stereo not drawn) [compound 59, 2-(2-chloro-6-(trifluoromethyl)benzyl)-6-methoxy-5-morpholino-2,3-dihydro-1H-inden-1-one]	> 1 µM	> 10 µM	> 1 µM	–	–	–
COc1cc2c(cc1N1CCOCC1)CC(Cc1cc(C(F)(F)F)cnc1Cl)C2=O (stereo not drawn) [compound 62, 2-((2-chloro-5-(trifluoromethyl)pyridin-3-yl)methyl)-6-methoxy-5-morpholino-2,3-dihydro-1H-inden-1-one]	> 1 µM	> 1 µM	–	–	–	< 0.5 µM
COc1cc2c(cc1N1CCOCC1)CC(Cc1cc(C(F)(F)F)ccc1NC(=O)C(C)(C)C)C2=O (stereo not drawn) [compound 65, N-(2-((6-methoxy-5-morpholino-1-oxo-2,3-dihydro-1H-inden-2-yl)methyl)-4-(trifluoromethyl)phenyl)pivalamide]	> 10 µM	> 1 µM	> 1 µM	–	–	–
COc1cc2c(cc1N1CCOCC1)CC(Cc1ncccc1C(F)(F)F)C2=O (stereo not drawn) [compound 68, 6-methoxy-5-morpholino-2-((3-(trifluoromethyl)pyridin-2-yl)methyl)-2,3-dihydro-1H-inden-1-one]	< 0.5 µM	< 0.5 µM	< 0.5 µM	–	–	–
COc1cc2c(cc1N1CCOCC1)CC(Cc1ccc(C(F)(F)F)nc1)C2=O (stereo not drawn) [compound 71, 6-methoxy-5-morpholino-2-((6-(trifluoromethyl)pyridin-3-yl)methyl)-2,3-dihydro-1H-inden-1-one]	> 10 µM	> 10 µM	> 1 µM	–	–	–
COc1cc2c(cc1N1CCOCC1)CC(Cc1ccc(C(F)(F)F)nc1)C2=O (stereo not drawn) [compound 83]	> 1 µM	> 1 µM	–	–	–	–
COc1cc2c(cc1N1CCN(C)CC1)CC(Cc1cccc(C(F)(F)F)c1)C2=O (stereo not drawn) [compound 156]	> 10 µM	< 0.5 µM	–	–	–	–
COc1cc2c(cc1N1CCNCC1)CC(Cc1ncccc1C(F)(F)F)C2=O (stereo not drawn) [compound 249]	> 1 µM	< 0.5 µM	–	–	–	–
COc1cc2c(cc1N1CCN(C)CC1)CC(Cc1ncccc1C(F)(F)F)C2=O (stereo not drawn) [compound 250]	> 1 µM	–	–	–	–	–
COc1cc2c(cc1N1CCOCC1)CC(Cc1cncc(C(O)(C(F)(F)F)C(F)(F)F)c1)C2=O (stereo not drawn) [compound 264]	< 0.5 µM	–	–	–	–	–
